Series [1] addresses G-protein coupled receptor 52 (Mus musculus) (UniProt P0C5J4). Description: In vivo antagonist activity at GPR52 in HdhQ140 knock-in mouse model assessed as reduction in soluble mHTT levels in striatum at 5 mg/kg, iv QD for 4 weeks by TR-FRET analysis. It counts as functional, organism-based. For orientation: TR-FRET usually uses a lanthanide donor and a delayed reading to cut background.

Series [2] concerns the target Beta-2 adrenergic receptor (Homo sapiens) (UniProt P07550). In words: Antagonist activity at beta2 adrenergic receptor (unknown origin) expressed in HEK293 cells assessed as inhibition of isoproterenol-induced cAMP accumulation. It counts as functional, cell-based. On the technique in general: cAMP levels reflect the balance of adenylyl cyclase and phosphodiesterase activity.

Another series relates to Mus musculus. In words: Neuroprotective activity in HdhQ140 knock-in mouse model assessed as rescue of mHTT-induced neuronal survival loss at 5 mg/kg, iv QD for 4 weeks by […] based immunostaining based analysis. In kind it is functional, organism-based.
Series [3] concerns the target G-protein coupled receptor 52 (Homo sapiens, UniProt Q9Y2T5). Description: Antagonist activity at GPR52 (unknown origin) expressed in HEK293 cells assessed as inhibition of WO459-induced cAMP accumulation preincubated for 15 mins followed by WO459 addition and measured after 30 mins by LANCE Ultra cAMP kit based microplate reader analysis. It counts as functional, cell-based. As to conditions: read-out: IC50.

The test system of the next series is STHdhQ7/111. In words: Decrease in mHTT level in GPR52 knockdown mouse STHdhQ7/111 cells with at 1 to 10 uM incubated for 48 hrs in presence of 2B7-terbium and 2166-D2 antibodies by TR-FRET analysis. In kind it is functional, cell-based. As to conditions: dose 1-10 µM.
Series [4] addresses D(2) dopamine receptor (Homo sapiens) (UniProt P14416). In words: Antagonist activity at dopamine D2 receptor (unknown origin) expressed in HEK293 cells assessed as inhibition of dopamine-induced cAMP accumulation. In kind it is functional, cell-based.
For series [5], the target named is G-protein coupled receptor 52 (Mus musculus) (UniProt P0C5J4). In words: In vivo antagonist activity at GPR52 in HdhQ140 knock-in mouse model assessed as reduction in soluble mHTT levels in cortex at 5 mg/kg, iv QD for 4 weeks by TR-FRET analysis. It counts as functional, organism-based.
Chain of G-protein coupled receptor 52 (Mus musculus) (P0C5J4 whole entry): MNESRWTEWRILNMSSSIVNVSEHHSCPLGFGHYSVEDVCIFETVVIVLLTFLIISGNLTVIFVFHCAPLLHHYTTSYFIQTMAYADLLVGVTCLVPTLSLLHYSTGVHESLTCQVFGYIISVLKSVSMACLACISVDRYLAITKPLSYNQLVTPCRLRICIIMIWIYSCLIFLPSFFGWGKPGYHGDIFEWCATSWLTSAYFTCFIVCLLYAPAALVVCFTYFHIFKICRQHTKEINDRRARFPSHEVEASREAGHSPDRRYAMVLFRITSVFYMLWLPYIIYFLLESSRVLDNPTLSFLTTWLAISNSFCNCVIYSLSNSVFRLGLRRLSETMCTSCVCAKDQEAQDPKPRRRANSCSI
Series [6] has as its target T1, Alpha-1D adrenergic receptor (Homo sapiens) (UniProt P25100).
T1 sequence (whole entry): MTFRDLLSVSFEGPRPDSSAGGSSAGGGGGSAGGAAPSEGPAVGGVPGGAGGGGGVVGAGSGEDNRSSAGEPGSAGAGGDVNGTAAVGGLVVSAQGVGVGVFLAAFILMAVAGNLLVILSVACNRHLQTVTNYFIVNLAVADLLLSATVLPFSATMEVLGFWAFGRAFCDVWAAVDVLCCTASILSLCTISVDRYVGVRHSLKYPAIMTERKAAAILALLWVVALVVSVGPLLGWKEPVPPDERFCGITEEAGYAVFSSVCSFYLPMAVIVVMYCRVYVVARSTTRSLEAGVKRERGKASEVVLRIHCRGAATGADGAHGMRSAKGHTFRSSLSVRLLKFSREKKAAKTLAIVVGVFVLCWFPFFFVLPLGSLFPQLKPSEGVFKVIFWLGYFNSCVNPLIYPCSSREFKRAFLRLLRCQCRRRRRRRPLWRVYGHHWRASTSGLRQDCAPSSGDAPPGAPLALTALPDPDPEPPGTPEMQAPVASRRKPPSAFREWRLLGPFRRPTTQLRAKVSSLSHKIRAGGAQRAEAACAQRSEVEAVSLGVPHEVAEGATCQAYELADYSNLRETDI
In words: Antagonist activity at alpha1D adrenergic receptor (unknown origin) expressed in HEK293 cells assessed as inhibition of phenylephrine-induced cAMP accumulation. It counts as functional, cell-based.

The target of series [7] is G-protein coupled receptor 52 (Mus musculus) (UniProt P0C5J4). Description: In vivo antagonist activity at GPR52 in HdhQ140 knock-in mouse model assessed as reduction in mHTT aggregate levels in striatum in presence of 4C9 antibody labelled with terbium at 5 mg/kg, iv QD for 4 weeks by TR-FRET analysis. It counts as functional, organism-based.
Series [8] deals with Neuron. Description: Neuroprotective activity in neurons from HdhQ7/Q140 mouse assessed as rescue from mHTT-induced neuronal loss at 3 uM incubated for 48 hrs maintained in absence of growth factor N2 and B27 under starvation condition by immunostaining based analysis. In kind it is functional, tissue-based.
Series [9] in a line: Cytotoxicity against mouse STHdhQ7/111 cells assessed as cell viability at < 10 uM incubated for 48 hrs by cell titer glo luminescence based assay. As to conditions: sthdhq7/111, 48 h. (ATP-based viability assays read luminescence as a measure of living cells.)
The target of series [10] is G-protein coupled receptor 52 (Mus musculus) (UniProt P0C5J4). Description: Antagonist activity at GPR52 in neurons from HdhQ7/Q140 mouse assessed as decrease in wild type HTT levels at 0.1 to 3 uM incubated for 48 hrs in presence of 2B7-terbium and 2166-D2 antibodies by TR-FRET analysis. In kind it is tissue-based. As to conditions: Neuron, filed as antagonist, dose 0.1-3 µM.

Series [11] relates to Neuron. In words: Neuroprotective activity in neurons from HdhQ7/Q140 mouse assessed as rescue from mHTT-induced neuronal loss by measuring reduction in caspase 3 activity at 3 uM incubated for 48 hrs maintained in absence of growth factor N2 and B27 under starvation condition by green fluorescent dye based assay. In kind it is functional, tissue-based.

This passage reports Activity and IC50 results from ChEMBL document CHEMBL4706623, “GPR52 Antagonist Reduces Huntingtin Levels and Ameliorates Huntington's Disease-Related Phenotypes” (J Med Chem, 2021).

The structures appear in SMILES notation. Active and inactive are the calls of the source. The rule behind the calls is not given here.

Chain of G-protein coupled receptor 52 (Q9Y2T5 whole entry): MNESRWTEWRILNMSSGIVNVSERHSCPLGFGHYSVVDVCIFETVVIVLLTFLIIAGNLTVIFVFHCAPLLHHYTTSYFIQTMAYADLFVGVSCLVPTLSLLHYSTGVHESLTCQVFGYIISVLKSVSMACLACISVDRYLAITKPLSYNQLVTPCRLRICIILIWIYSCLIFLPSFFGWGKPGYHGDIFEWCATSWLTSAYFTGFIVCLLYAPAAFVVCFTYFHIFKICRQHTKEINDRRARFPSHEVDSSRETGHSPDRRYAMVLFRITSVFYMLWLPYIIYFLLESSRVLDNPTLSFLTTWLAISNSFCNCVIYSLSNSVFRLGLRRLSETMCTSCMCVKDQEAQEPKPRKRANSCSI
Chain of D(2) dopamine receptor (Homo sapiens) (P14416 whole entry): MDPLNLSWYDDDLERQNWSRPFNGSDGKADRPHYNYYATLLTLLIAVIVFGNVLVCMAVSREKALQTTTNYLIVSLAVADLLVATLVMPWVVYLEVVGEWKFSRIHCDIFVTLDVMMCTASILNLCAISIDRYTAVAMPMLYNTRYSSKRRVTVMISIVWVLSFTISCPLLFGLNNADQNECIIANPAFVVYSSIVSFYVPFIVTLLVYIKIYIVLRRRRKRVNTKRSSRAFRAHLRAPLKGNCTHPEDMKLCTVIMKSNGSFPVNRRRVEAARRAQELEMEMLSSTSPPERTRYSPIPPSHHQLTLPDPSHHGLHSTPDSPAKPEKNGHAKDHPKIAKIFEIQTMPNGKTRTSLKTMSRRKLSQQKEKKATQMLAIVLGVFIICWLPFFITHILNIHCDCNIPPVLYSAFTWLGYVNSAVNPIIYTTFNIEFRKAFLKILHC
Chain of Beta-2 adrenergic receptor (Homo sapiens) (P07550 whole entry, looked up): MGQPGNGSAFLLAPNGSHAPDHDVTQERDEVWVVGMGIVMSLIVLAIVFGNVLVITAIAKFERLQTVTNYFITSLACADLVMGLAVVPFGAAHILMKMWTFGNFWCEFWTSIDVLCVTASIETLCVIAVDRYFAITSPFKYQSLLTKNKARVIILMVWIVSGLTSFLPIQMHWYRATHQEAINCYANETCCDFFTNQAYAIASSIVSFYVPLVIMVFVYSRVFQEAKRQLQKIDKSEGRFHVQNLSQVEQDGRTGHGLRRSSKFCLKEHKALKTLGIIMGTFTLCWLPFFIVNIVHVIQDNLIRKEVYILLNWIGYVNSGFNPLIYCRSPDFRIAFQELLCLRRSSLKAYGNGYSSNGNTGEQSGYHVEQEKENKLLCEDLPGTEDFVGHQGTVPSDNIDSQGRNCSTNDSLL

As to `O=C(/C=C/CCc1ccccc1)c1ccco1`, the result (in [1]; in the series on Mus musculus; in series [7]; in the series with Neuron [8]; in [10]; with Neuron [11]) was Active. Also, the outcome (in series [2]; in the series on STHdhQ7/111; in series [4]; in series [5]; in series [6]) was inactive. Also, the IC50 in series [3] was determined as 630 nM. Also, the Activity entry in series [9] is “Non-Toxic”.

For orientation: IC50 means the midpoint of a concentration-inhibition curve.
